Assay results taken from publication PMC11891622 (Angewandte Chemie (International Ed. in English), 2025).
Entries after “also recorded” stand apart in the source; their conditions may differ. Where two headings read alike, the source gives them in different places.

Experiments:
[1] = biological target: SARS-CoV-2 Nucleocapsid protein N-terminal globular domain NTD (44–180) (Severe acute respiratory syndrome coronavirus 2, UniProt P0DTC9); format: binding
[2] = system: SARS-CoV-2 Nucleocapsid protein NTR (1–248) (NTD plus two flanking IDRs); format: binding; conditions: for peaks of poly-L region (216–225): 0.25 equiv. of the chimaera

In the case of “Ac‐Glu‐Gly‐Glu‐Gly‐Glu‐Gly‐Gly‐Glu‐gggg‐Glu‐Gly‐Gly‐Glu‐Gly‐Glu‐(β‐Ala)‐Glu [P-PNA]”, the “CSP magnitude, chimaera versus peptide P” value [1] is reported as “CSP for the same residues are more pronounced in the case of the chimaera adduct; also recorded: chemical shift perturbation values are clearly higher for the chimeric molecule”, the “affinity compared with gRNA fragments / oligonucleotides” value [1] is reported as “despite larger, is not significantly distant from those reported in the literature for studies conducted with gRNA fragments; also recorded: lower than that of some oligonucleotides of similar length” and the “affinity compared with the peptide / chimaera counterpart” value [1] is reported as “superior affinity over the pure peptide precursor; also recorded: higher affinity for an RNA‐binding protein, such as the nucleocapsid protein of SARS‐CoV‐2, compared to a pure designed peptide”. The “CSP pattern: location of most affected residues” value ([1]; pH 6.5) was “predominantly cluster within three main regions, as reported in Figure 2B and 2C, very similar to those identified when interacting with RNA”, the “exchange regime on the NMR time scale” value ([1]; pH 6.5) was “an interaction taking place in a fast exchange regime on the NMR time scale” and the “peaks of poly-L region (216–225)” value ([2]; 70 µM NTR1-248, pH 6.5, 298 K, listed as P‐PNA) was “several cross peaks disappearing at only 0.25 equiv. of ligand added”. For the same substance, the “peaks of poly-L region (216–225)” value ([2]; 70 µM NTR1-248, pH 6.5, 298 K, listed as chimaera) was “disappeared immediately after the addition of only 0.25 equiv. of the chimaera”, the “major CSPs on the NTD (44–180) region within NTR (1–248)” value ([2]; CSP at 1 equiv. P-PNA, 70 µM NTR1-248, pH 6.5, 298 K) was “identified once again in the basic finger of NTD (44–180)” and the “similarity of affected regions to those with RNA fragments” value ([2]; NTR (1–248), comparison with ref [22], [24]) was “the regions that are most affected by the interaction are similar to those identified when studying the interaction of NTR (1–248) with RNA fragments”. For the same substance, the “most perturbed residues, IDR2 (181–248) SR-rich region (177–203)” value ([2]; pH 6.5) was “the SR‐rich region, which shows the highest CSP values; also recorded: The most perturbed residues are found in the SR‐rich region (177–203” and the “intensity of NTD (44–180) peaks within NTR (1–248)” value ([2]; upon addition of the chimaera, 70 µM NTR1-248, pH 6.5, 298 K) was “several peaks of NTD (44–180) decrease in intensity or disappear completely”.
